PubChem BioAssay AID2060328 (Molecular Pharmacology Branch, DTP, NCI, 2025)

System: MDA-MB-231 multicell spheroids, viability (%T/C)
Experiment: Anticancer human tumor MDA-MB-231 cell line growth inhibition [IpAb];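 also: viability read after seven days of drug exposure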;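 as to viability, T/C: 100% = DMSO vehicle control viability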
Settings: for IC50: curve of first compound; for viability, T/C: stronger effect = lower value; active = viability on the fitted dose curve at most 10% of control; inactive = the rest
Method in brief: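 Spheroids of 60% malignant cells, 25% HUVEC and 15% MSC were exposed to targeted agents combined with ipatasertib or abemaciclib. Doses started at or near clinical Cmax (10 microM when unknown) and fell in half-log steps.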

[1] = second compound 0.01 µM, first compound 0.0316 µM
[2] = second compound 0.01 µM, first compound 0.1 µM
[3] = second compound 0.01 µM, first compound 0.316 µM
[4] = second compound 0.01 µM, first compound 1 µM
[5] = second compound 0.01 µM, first compound 3.16 µM
[6] = second compound 0.01 µM, first compound 10 µM
[7] = second compound 0.0316 µM, first compound 0.0316 µM
[8] = second compound 0.0316 µM, first compound 0.1 µM
[9] = second compound 0.0316 µM, first compound 0.316 µM
[10] = second compound 0.0316 µM, first compound 1 µM
[11] = second compound 0.0316 µM, first compound 3.16 µM
[12] = second compound 0.0316 µM, first compound 10 µM
[13] = second compound 0.1 µM, first compound 0.0316 µM
[14] = second compound 0.1 µM, first compound 0.1 µM
[15] = second compound 0.1 µM, first compound 0.316 µM
[16] = second compound 0.1 µM, first compound 1 µM
[17] = second compound 0.1 µM, first compound 3.16 µM
[18] = second compound 0.1 µM, first compound 10 µM
[19] = second compound 0.316 µM, first compound 0.0316 µM
[20] = second compound 0.316 µM, first compound 0.1 µM
[21] = second compound 0.316 µM, first compound 0.316 µM
[22] = second compound 0.316 µM, first compound 1 µM
[23] = second compound 0.316 µM, first compound 3.16 µM
[24] = second compound 0.316 µM, first compound 10 µM
[25] = second compound 1 µM, first compound 0.0316 µM
[26] = second compound 1 µM, first compound 0.1 µM
[27] = second compound 1 µM, first compound 0.316 µM
[28] = second compound 1 µM, first compound 1 µM
[29] = second compound 1 µM, first compound 3.16 µM
[30] = second compound 1 µM, first compound 10 µM

Cc1nc(NC(=O)N2CCCC2C(N)=O)sc1-c1ccnc(C(C)(C)C(F)(F)F)c1 (stereo not given) + CCN1CCN(Cc2ccc(Nc3ncc(F)c(-c4cc(F)c5nc(C)n(C(C)C)c5c4)n3)nc2)CC1
> 10000 nM: IC50 (second compound 0.01 µM)
159 nM: IC50 (second compound 0.0316 µM)
< 31.6 nM: IC50 (second compound 0.1 µM) | IC50 (second compound 0.316 µM) | IC50 (second compound 1 µM)
inactive: viability, T/C [1] 79.3% | viability, T/C [2] 61.5% | viability, T/C [3] 56% | viability, T/C [4] 55.2% | viability, T/C [5] 59.1% | viability, T/C [6] 55.4% | viability, T/C [7] 64% | viability, T/C [8] 52.2% | viability, T/C [9] 46.6% | viability, T/C [10] 45.9% | viability, T/C [11] 47.3% | viability, T/C [12] 45.4% | viability, T/C [13] 46.1% | viability, T/C [14] 41.8% | viability, T/C [15] 35.8% | viability, T/C [16] 38.4% | viability, T/C [17] 41.5% | viability, T/C [18] 41.8% | viability, T/C [19] 43.7% | viability, T/C [20] 39.3% | viability, T/C [21] 37.3% | viability, T/C [22] 37.7% | viability, T/C [23] 39.4% | viability, T/C [24] 45.3% | viability, T/C [25] 50.8% | viability, T/C [26] 48.2% | viability, T/C [27] 44.6% | viability, T/C [28] 45.9% | viability, T/C [29] 53.9% | viability, T/C [30] 61%

Cn1cnc2c(F)c(Nc3ccc(Br)cc3Cl)c(C(=O)NOCCO)cc21 + CC(C)NCC(C(=O)N1CCN(c2ncnc3c2C(C)CC3O)CC1)c1ccc(Cl)cc1
< 9.49 nM: IC50 (second compound 0.1 µM) | IC50 (second compound 0.316 µM) | IC50 (second compound 1 µM) | IC50 (second compound 3.16 µM) | IC50 (second compound 10 µM)
active: viability, T/C (second compound 3.16 µM, first compound 3 µM) 7.58% | viability, T/C (second compound 10 µM, first compound 0.949 µM) 8.94% | viability, T/C (second compound 10 µM, first compound 3 µM) 4.82%
inactive: viability, T/C (second compound 0.1 µM, first compound 0.00949 µM) 43.2% | viability, T/C (second compound 0.1 µM, first compound 0.03 µM) 36.2% | viability, T/C (second compound 0.1 µM, first compound 0.0949 µM) 34.3% | viability, T/C (second compound 0.1 µM, first compound 0.3 µM) 27.8% | viability, T/C (second compound 0.1 µM, first compound 0.949 µM) 23.4% | viability, T/C (second compound 0.1 µM, first compound 3 µM) 13% | viability, T/C (second compound 0.316 µM, first compound 0.00949 µM) 38% | viability, T/C (second compound 0.316 µM, first compound 0.03 µM) 31.8% | viability, T/C (second compound 0.316 µM, first compound 0.0949 µM) 29.5% | viability, T/C (second compound 0.316 µM, first compound 0.3 µM) 24.1% | viability, T/C (second compound 0.316 µM, first compound 0.949 µM) 20.4% | viability, T/C (second compound 0.316 µM, first compound 3 µM) 11.6% | viability, T/C (second compound 1 µM, first compound 0.00949 µM) 31.2% | viability, T/C (second compound 1 µM, first compound 0.03 µM) 28.2% | viability, T/C (second compound 1 µM, first compound 0.0949 µM) 24.8% | viability, T/C (second compound 1 µM, first compound 0.3 µM) 23% | viability, T/C (second compound 1 µM, first compound 0.949 µM) 17.5% | viability, T/C (second compound 1 µM, first compound 3 µM) 10.5% | viability, T/C (second compound 3.16 µM, first compound 0.00949 µM) 25% | viability, T/C (second compound 3.16 µM, first compound 0.03 µM) 22.6% | viability, T/C (second compound 3.16 µM, first compound 0.0949 µM) 20.6% | viability, T/C (second compound 3.16 µM, first compound 0.3 µM) 18.4% | viability, T/C (second compound 3.16 µM, first compound 0.949 µM) 14.5% | viability, T/C (second compound 10 µM, first compound 0.00949 µM) 18.9% | viability, T/C (second compound 10 µM, first compound 0.03 µM) 16.9% | viability, T/C (second compound 10 µM, first compound 0.0949 µM) 13.8% | viability, T/C (second compound 10 µM, first compound 0.3 µM) 13.1%

C=CC(=O)N1CCN(c2nc(=O)n(-c3c(C)ccnc3C(C)C)c3nc(-c4c(O)cccc4F)c(F)cc23)C(C)C1 (stereo not given) + CCN1CCN(Cc2ccc(Nc3ncc(F)c(-c4cc(F)c5nc(C)n(C(C)C)c5c4)n3)nc2)CC1
> 10000 nM: IC50 (second compound 0.01 µM) | IC50 (second compound 0.0316 µM) | IC50 (second compound 0.1 µM) | IC50 (second compound 0.316 µM) | IC50 (second compound 1 µM)
inactive: viability, T/C [1] 91.9% | viability, T/C [2] 93.1% | viability, T/C [3] 107% | viability, T/C [4] 120% | viability, T/C [5] 111% | viability, T/C [6] 76.3% | viability, T/C [7] 78.5% | viability, T/C [8] 88.4% | viability, T/C [9] 89.9% | viability, T/C [10] 101% | viability, T/C [11] 92.3% | viability, T/C [12] 66.4% | viability, T/C [13] 61.3% | viability, T/C [14] 66.2% | viability, T/C [15] 73.8% | viability, T/C [16] 84.4% | viability, T/C [17] 74% | viability, T/C [18] 59.1% | viability, T/C [19] 48.3% | viability, T/C [20] 51.3% | viability, T/C [21] 58.6% | viability, T/C [22] 65.9% | viability, T/C [23] 60.7% | viability, T/C [24] 59% | viability, T/C [25] 50.8% | viability, T/C [26] 56.2% | viability, T/C [27] 61.1% | viability, T/C [28] 67.1% | viability, T/C [29] 71.7% | viability, T/C [30] 61.8%
